What was measured:
Assay in all cases: post-emergence herbicidal activity, greenhouse
Type in all cases: in vivo
Barnyardgrass = system: Barnyardgrass
How it was run: (§1)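 The readout is plant injury compared with untreated pans, taken at two time points, about two and four weeks after spraying. Plants had grown two to three weeks in greenhouse topsoil pans before atomizer treatment.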

Canada Thistle = conditions: Table II
How it was run: as §1

Cocklebur = system: Cocklebur
How it was run: as §1

Common Lambsquarters = system: Common Lambsquarters
How it was run: as §1

Downy Brome = system: Downy Brome
How it was run: as §1

Hemp Sesbania = conditions: Table III, 2 WAT
How it was run: as §1

Johnsongrass = conditions: Table II
How it was run: as §1

Large Crabgrass = conditions: Table III, 2 WAT
How it was run: as §1

Morningglory = system: Morningglory
How it was run: as §1

Panicum Spp = conditions: Table III, 2 WAT
How it was run: as §1

Pennsylvania Smartweed = system: Pennsylvania Smartweed
How it was run: as §1

Quackgrass = conditions: Table II
How it was run: (§2)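 After sowing in soil-filled pans and growing under greenhouse conditions, plants at two to three weeks were sprayed post-emergence with the test compound in a formulation containing approximately 0.4% emulsifier by weight. Observations of plant injury, relative to controls, followed at about two and four weeks.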

Rice = conditions: Table III, 2 WAT
How it was run: as §1

Soybean = conditions: Table III, 2 WAT
How it was run: as §1

Sugar Beet = conditions: Table III, 2 WAT
How it was run: as §1

Velvetleaf = system: Velvetleaf
How it was run: as §1

Wild Buckwheat = conditions: Table III, 2 WAT
How it was run: as §1

Yellow Nutsedge = conditions: Table II
How it was run: as §2

[1] = Table II, 2 WAT, 5.6 kg/h, formulated immediately prior to treatment
[2] = Table II, 2 WAT, 11.2 kg/h, formulated immediately prior to treatment
[3] = Table II, 4 WAT, 5.6 kg/h, formulated immediately prior to treatment
[4] = Table II, 4 WAT, 11.2 kg/h, formulated immediately prior to treatment
[5] = 2 WAT, 5.6 kg/h, formulated immediately prior to treatment
[6] = 2 WAT, 11.2 kg/h, formulated immediately prior to treatment
[7] = 4 WAT, 5.6 kg/h, formulated immediately prior to treatment
[8] = 4 WAT, 11.2 kg/h, formulated immediately prior to treatment

CC(C)(C)[Si](OP(=O)(O)CNCC(=O)OCCCl)(c1ccccc1)c1ccccc1 [Ex. 8, Glycine, N--((([(1,1-Dimethylethyl)Diphenylsilyl]oxy)Hydroxyphosphinyl)Methyl)-,2-Chloroethyl Ester Hydrate]
1 (25-49% inhibition): Plant Response Index (K) (Barnyardgrass; Table III, 2 WAT, 1.1 kg/h) | Plant Response Index (E) (Common Lambsquarters; Table II, 2 WAT, 11.2 kg/h) | Plant Response Index (E) (Common Lambsquarters; Table II, 4 WAT, 11.2 kg/h) | Plant Response Index (J) (Downy Brome; Table II, 2 WAT, 5.6 kg/h) | Plant Response Index (J) (Downy Brome; Table II, 4 WAT, 5.6 kg/h) | Plant Response Index (R) (Hemp Sesbania; 1.1 kg/h) | Plant Response Index (I) (Johnsongrass; 2 WAT, 11.2 kg/h) | Plant Response Index (S) (Panicum Spp; 1.1 kg/h) | Plant Response Index (C) (Velvetleaf; Table II, 2 WAT, 5.6 kg/h) | Plant Response Index (C) (Velvetleaf; Table II, 4 WAT, 5.6 kg/h)
4 (100% inhibition): Plant Response Index (K) (Barnyardgrass; Table II, 4 WAT, 5.6 kg/h) | Plant Response Index (A) (Canada Thistle; 4 WAT, 5.6 kg/h) | Plant Response Index (F) (Pennsylvania Smartweed; Table II, 4 WAT, 5.6 kg/h) | Plant Response Index (F) (Pennsylvania Smartweed; Table II, 4 WAT, 11.2 kg/h) | Plant Response Index (H) (Quackgrass; 4 WAT, 5.6 kg/h)
2 (50-74% inhibition): Plant Response Index (K) (Barnyardgrass; Table II, 2 WAT, 11.2 kg/h) | Plant Response Index (A) (Canada Thistle; 2 WAT, 5.6 kg/h) | Plant Response Index (A) (Canada Thistle; 2 WAT, 11.2 kg/h) | Plant Response Index (A) (Canada Thistle; 4 WAT, 11.2 kg/h) | Plant Response Index (B) (Cocklebur; Table II, 2 WAT, 5.6 kg/h) | Plant Response Index (E) (Common Lambsquarters; Table II, 2 WAT, 5.6 kg/h) | Plant Response Index (E) (Common Lambsquarters; Table II, 4 WAT, 5.6 kg/h) | Plant Response Index (J) (Downy Brome; Table II, 2 WAT, 11.2 kg/h) | Plant Response Index (I) (Johnsongrass; 4 WAT, 5.6 kg/h) | Plant Response Index (I) (Johnsongrass; 4 WAT, 11.2 kg/h) | Plant Response Index (T) (Large Crabgrass; 1.1 kg/h) | Plant Response Index (D) (Morningglory; Table II, 2 WAT, 5.6 kg/h) | Plant Response Index (D) (Morningglory; Table II, 2 WAT, 11.2 kg/h) | Plant Response Index (D) (Morningglory; Table II, 4 WAT, 5.6 kg/h) | Plant Response Index (D) (Morningglory; Table II, 4 WAT, 11.2 kg/h) | Plant Response Index (F) (Pennsylvania Smartweed; Table II, 2 WAT, 11.2 kg/h) | Plant Response Index (H) (Quackgrass; 2 WAT, 11.2 kg/h) | Plant Response Index (G) (Yellow Nutsedge; 2 WAT, 5.6 kg/h) | Plant Response Index (G) (Yellow Nutsedge; 2 WAT, 11.2 kg/h) | Plant Response Index (G) (Yellow Nutsedge; 4 WAT, 5.6 kg/h)
0 (0-24% inhibition): Plant Response Index (B) (Cocklebur; Table III, 2 WAT, 1.1 kg/h) | Plant Response Index (J) (Downy Brome; Table III, 2 WAT, 1.1 kg/h) | Plant Response Index (I) (Johnsongrass; 2 WAT, 5.6 kg/h) | Plant Response Index (D) (Morningglory; Table III, 2 WAT, 1.1 kg/h) | Plant Response Index (O) (Rice; 1.1 kg/h) | Plant Response Index (L) (Soybean; 1.1 kg/h) | Plant Response Index (M) (Sugar Beet; 1.1 kg/h) | Plant Response Index (C) (Velvetleaf; Table III, 2 WAT, 1.1 kg/h) | Plant Response Index (Q) (Wild Buckwheat; 1.1 kg/h)
3 (75-99% inhibition): Plant Response Index (K) (Barnyardgrass; Table II, 2 WAT, 5.6 kg/h) | Plant Response Index (K) (Barnyardgrass; Table II, 4 WAT, 11.2 kg/h) | Plant Response Index (B) (Cocklebur; Table II, 2 WAT, 11.2 kg/h) | Plant Response Index (B) (Cocklebur; Table II, 4 WAT, 5.6 kg/h) | Plant Response Index (B) (Cocklebur; Table II, 4 WAT, 11.2 kg/h) | Plant Response Index (E) (Common Lambsquarters; Table III, 2 WAT, 1.1 kg/h) | Plant Response Index (J) (Downy Brome; Table II, 4 WAT, 11.2 kg/h) | Plant Response Index (F) (Pennsylvania Smartweed; Table II, 2 WAT, 5.6 kg/h) | Plant Response Index (H) (Quackgrass; 2 WAT, 5.6 kg/h) | Plant Response Index (H) (Quackgrass; 4 WAT, 11.2 kg/h) | Plant Response Index (C) (Velvetleaf; Table II, 2 WAT, 11.2 kg/h) | Plant Response Index (C) (Velvetleaf; Table II, 4 WAT, 11.2 kg/h) | Plant Response Index (G) (Yellow Nutsedge; 4 WAT, 11.2 kg/h)

CC(C)(C)[Si](C)(C)OP(=O)(CNCC(=O)OCCc1ccccc1)O[Si](C)(C)C(C)(C)C [Ex. 10, Glycine, N--((Bis[((1,1-Dimethylethyl)Dimethylsilyl)Oxy]Phosphinyl)Methyl)-,2-Phenylethyl Ester Hydrate]
0 (0-24% inhibition): Plant Response Index (A) (Canada Thistle; [5]) | Plant Response Index (A) (Canada Thistle; [7]) | Plant Response Index (B) (Cocklebur; [3]) | Plant Response Index (B) (Cocklebur; Table III, 2 WAT, 1.1 kg/h) | Plant Response Index (J) (Downy Brome; [1]) | Plant Response Index (J) (Downy Brome; [3]) | Plant Response Index (J) (Downy Brome; Table III, 2 WAT, 1.1 kg/h) | Plant Response Index (R) (Hemp Sesbania; 1.1 kg/h) | Plant Response Index (R) (Hemp Sesbania; 5.6 kg/h) | Plant Response Index (I) (Johnsongrass; [5]) | Plant Response Index (I) (Johnsongrass; [7]) | Plant Response Index (D) (Morningglory; [3]) | Plant Response Index (D) (Morningglory; Table III, 2 WAT, 5.6 kg/h) | Plant Response Index (H) (Quackgrass; [5]) | Plant Response Index (H) (Quackgrass; [7]) | Plant Response Index (O) (Rice; 1.1 kg/h) | Plant Response Index (O) (Rice; 5.6 kg/h) | Plant Response Index (L) (Soybean; 1.1 kg/h) | Plant Response Index (L) (Soybean; 5.6 kg/h) | Plant Response Index (C) (Velvetleaf; [1]) | Plant Response Index (C) (Velvetleaf; [3]) | Plant Response Index (Q) (Wild Buckwheat; 1.1 kg/h) | Plant Response Index (Q) (Wild Buckwheat; 5.6 kg/h)
3 (75-99% inhibition): Plant Response Index (K) (Barnyardgrass; [4]) | Plant Response Index (E) (Common Lambsquarters; [2]) | Plant Response Index (E) (Common Lambsquarters; [3]) | Plant Response Index (E) (Common Lambsquarters; [4]) | Plant Response Index (E) (Common Lambsquarters; Table III, 2 WAT, 5.6 kg/h) | Plant Response Index (T) (Large Crabgrass; 5.6 kg/h) | Plant Response Index (S) (Panicum Spp; 5.6 kg/h) | Plant Response Index (F) (Pennsylvania Smartweed; [2]) | Plant Response Index (F) (Pennsylvania Smartweed; [4]) | Plant Response Index (M) (Sugar Beet; 5.6 kg/h)
2 (50-74% inhibition): Plant Response Index (K) (Barnyardgrass; [2]) | Plant Response Index (K) (Barnyardgrass; [3]) | Plant Response Index (K) (Barnyardgrass; Table III, 2 WAT, 5.6 kg/h) | Plant Response Index (A) (Canada Thistle; [6]) | Plant Response Index (A) (Canada Thistle; [8]) | Plant Response Index (B) (Cocklebur; [2]) | Plant Response Index (B) (Cocklebur; [4]) | Plant Response Index (B) (Cocklebur; Table III, 2 WAT, 5.6 kg/h) | Plant Response Index (E) (Common Lambsquarters; [1]) | Plant Response Index (E) (Common Lambsquarters; Table III, 2 WAT, 1.1 kg/h) | Plant Response Index (D) (Morningglory; [2]) | Plant Response Index (D) (Morningglory; [4]) | Plant Response Index (F) (Pennsylvania Smartweed; Table III, 2 WAT, 1.1 kg/h) | Plant Response Index (F) (Pennsylvania Smartweed; Table III, 2 WAT, 5.6 kg/h) | Plant Response Index (C) (Velvetleaf; [2]) | Plant Response Index (C) (Velvetleaf; [4]) | Plant Response Index (C) (Velvetleaf; Table III, 2 WAT, 5.6 kg/h) | Plant Response Index (G) (Yellow Nutsedge; [6]) | Plant Response Index (G) (Yellow Nutsedge; [7]) | Plant Response Index (G) (Yellow Nutsedge; [8])
1 (25-49% inhibition): Plant Response Index (K) (Barnyardgrass; [1]) | Plant Response Index (B) (Cocklebur; [1]) | Plant Response Index (J) (Downy Brome; [2]) | Plant Response Index (J) (Downy Brome; [4]) | Plant Response Index (J) (Downy Brome; Table III, 2 WAT, 5.6 kg/h) | Plant Response Index (I) (Johnsongrass; [6]) | Plant Response Index (I) (Johnsongrass; [8]) | Plant Response Index (D) (Morningglory; [1]) | Plant Response Index (F) (Pennsylvania Smartweed; [1]) | Plant Response Index (F) (Pennsylvania Smartweed; [3]) | Plant Response Index (H) (Quackgrass; [6]) | Plant Response Index (H) (Quackgrass; [8]) | Plant Response Index (G) (Yellow Nutsedge; [5])

From patent US4471131A, “Novel silyl esters of N-phosphonomethylglycine” (Monsanto Company, priority 1983, dated 1984)
